Measured values from patent US20210206818A1, “MESSENGER RIBONUCLEIC ACIDS FOR THE PRODUCTION OF INTRACELLULAR BINDING POLYPEPTIDES AND METHODS OF USE THEREOF” (ModernaTX, Inc., priority 2016, published 2021).

Tests used:
MCL1 = assay: Western blotting of MCL1 downregulation in Hep3B cells; assay type: cell-based, human; conditions: 24 hours, sorafenib at 10 uM
Protocol: A first series of experiments was conducted to determine whether specific targeting of MCL1 recapitulates sorafenib synergy with SQT-BH3 in cells in vitro.

[1] = test system: Hep3B human hepatocellular carcinoma cells; assay: Cell death of Hep3B cells transfected with truncated BID (tBID) mmRNA constructs (CellTiterGlo); assay type: cell-based; conditions: CellTiterGlo (CTG) assay, varying doses
Text: One construct encoded a single copy of amino acids 61-195 of the BID protein that includes its BH3 domain (with a FLAG epitope tag). The open reading frame (ORF) amino acid sequence and corresponding nucleotide sequence encoding the ORF a.a. sequence are shown in SEQ ID NOs: 289 and 290, respectively. The sequence for the corresponding construct without the FLAG epitope tag is shown in SEQ ID NO: 291. A second construct encoded a single copy of amino acids 77-195 of the BID protein that includes its BH3 domain (with a FLAG epitope tag). The open reading frame (ORF) amino acid sequence and corresponding nucleotide sequence encoding the ORF a.a. sequence are shown in SEQ ID NOs: 292 and 293, respectively. The sequence for the corresponding construct without the FLAG epitope tag is shown in SEQ ID NO: 294. The open reading frame (ORF) amino acid sequence and corresponding nucleotide sequence encoding the ORF a.a. sequence of a third construct, containing amino acids 61-104 of the BID protein, are shown in SEQ ID NOs: 286 and 287, respectively. The sequence for the corresponding construct without the FLAG epitope tag is shown in SEQ ID NO: 288. […]
Hep3B cells/well were plated in 96 well plates and the cells were transfected with varying doses of the mmRNA constructs. Cell death was measured using the CellTiterGlo (CTG) assay. […]

CNC(=O)c1cc(Oc2ccc(NC(=O)Nc3ccc(Cl)c(C(F)(F)F)c3)cc2)ccn1 [sorafenib]
MCL1 downregulation (Western blotting) (MCL1): downregulated MCL1

B1: tBID (77-195): mmRNA encoding a single copy of amino acids 77-195 of the BID protein with FLAG tag; SEQ ID NOs: 292 and 293 (nucleic acid)
DNA: ATGGAAAGTCAAGAAGACATCATCCGGAATATTGCCAGGCACCTCGCCCAGGTCGGGGACAGCATGGACCGTAGCATCCCTCCGGGCCTGGTGAACGGCCTGGCCCTGCAGCTCAGGAACACCAGCCGGTCGGAGGAGGACCGGAACAGGGACCTGGCCACTGCCCTGGAGCAGCTGCTGCAGGCCTACCCTAGAGACATGGAGAAGGAGAAGACCATGCTGGTGCTGGCCCTGCTGCTGGCCAAGAAGGTGGCCAGTCACACGCCGTCCTTGCTCCGTGATGTCTTTCACACAACAGTGAATTTTATTAACCAGAACCTACGCACCTACGTGAGGAGCTTAGCCAGAAATGGGATGGACATGGATTACAAGGACGATGATGACAAG
modifications: mmRNA, FLAG tag; Synthetic: hum.tBID(77-195).FLAG
apoptosis of Hep3B cells [1]: induced apoptosis of Hep3B cells
